Legend:
[1] = biological target: T1, G2019S LRRK2 (Homo sapiens, UniProt Q5S007, G2019S); test: LRRK2 degradation assay, G2019S LRRK2-HiBit expressed from plasmid in HEK293 cells; assay type: cell-based; details: HEK293 cells transfected with HiBit-tagged G2019S LRRK2, 24 hours compound incubation
T1 construct: expressed in transfected cells; host or cells: HEK293 (ATCC CRL-1573), transient transfection, ubiquitin promoter
Summary of the method: (§1)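 DC50 and Dmax derived from per-plate curve fits of LRRK2-HiBit signal over firefly luciferase (cell number/viability), as % of DMSO median, from 6 replicates across two days. Compound exposure was 24 hours at 37° C. in HEK293 cells transfected with wild-type or G2019S LRRK2 bearing a C-terminal HiBit tag.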

[2] = biological target: T2, wildtype LRRK2 (Homo sapiens, UniProt Q5S007); test: LRRK2 degradation assay, wildtype LRRK2-HiBit expressed from plasmid in HEK293 cells; assay type: cell-based; details: HEK293 cells transfected with HiBit-tagged wildtype LRRK2, 24 hours compound incubation; for Dmax: read-out: **WT Dmax (%); for DC50: read-out: *WT DC50
T2 construct: expressed in transfected cells; host or cells: HEK293 (ATCC CRL-1573), transient transfection, ubiquitin promoter
T2 sequence (Q5S007 whole entry): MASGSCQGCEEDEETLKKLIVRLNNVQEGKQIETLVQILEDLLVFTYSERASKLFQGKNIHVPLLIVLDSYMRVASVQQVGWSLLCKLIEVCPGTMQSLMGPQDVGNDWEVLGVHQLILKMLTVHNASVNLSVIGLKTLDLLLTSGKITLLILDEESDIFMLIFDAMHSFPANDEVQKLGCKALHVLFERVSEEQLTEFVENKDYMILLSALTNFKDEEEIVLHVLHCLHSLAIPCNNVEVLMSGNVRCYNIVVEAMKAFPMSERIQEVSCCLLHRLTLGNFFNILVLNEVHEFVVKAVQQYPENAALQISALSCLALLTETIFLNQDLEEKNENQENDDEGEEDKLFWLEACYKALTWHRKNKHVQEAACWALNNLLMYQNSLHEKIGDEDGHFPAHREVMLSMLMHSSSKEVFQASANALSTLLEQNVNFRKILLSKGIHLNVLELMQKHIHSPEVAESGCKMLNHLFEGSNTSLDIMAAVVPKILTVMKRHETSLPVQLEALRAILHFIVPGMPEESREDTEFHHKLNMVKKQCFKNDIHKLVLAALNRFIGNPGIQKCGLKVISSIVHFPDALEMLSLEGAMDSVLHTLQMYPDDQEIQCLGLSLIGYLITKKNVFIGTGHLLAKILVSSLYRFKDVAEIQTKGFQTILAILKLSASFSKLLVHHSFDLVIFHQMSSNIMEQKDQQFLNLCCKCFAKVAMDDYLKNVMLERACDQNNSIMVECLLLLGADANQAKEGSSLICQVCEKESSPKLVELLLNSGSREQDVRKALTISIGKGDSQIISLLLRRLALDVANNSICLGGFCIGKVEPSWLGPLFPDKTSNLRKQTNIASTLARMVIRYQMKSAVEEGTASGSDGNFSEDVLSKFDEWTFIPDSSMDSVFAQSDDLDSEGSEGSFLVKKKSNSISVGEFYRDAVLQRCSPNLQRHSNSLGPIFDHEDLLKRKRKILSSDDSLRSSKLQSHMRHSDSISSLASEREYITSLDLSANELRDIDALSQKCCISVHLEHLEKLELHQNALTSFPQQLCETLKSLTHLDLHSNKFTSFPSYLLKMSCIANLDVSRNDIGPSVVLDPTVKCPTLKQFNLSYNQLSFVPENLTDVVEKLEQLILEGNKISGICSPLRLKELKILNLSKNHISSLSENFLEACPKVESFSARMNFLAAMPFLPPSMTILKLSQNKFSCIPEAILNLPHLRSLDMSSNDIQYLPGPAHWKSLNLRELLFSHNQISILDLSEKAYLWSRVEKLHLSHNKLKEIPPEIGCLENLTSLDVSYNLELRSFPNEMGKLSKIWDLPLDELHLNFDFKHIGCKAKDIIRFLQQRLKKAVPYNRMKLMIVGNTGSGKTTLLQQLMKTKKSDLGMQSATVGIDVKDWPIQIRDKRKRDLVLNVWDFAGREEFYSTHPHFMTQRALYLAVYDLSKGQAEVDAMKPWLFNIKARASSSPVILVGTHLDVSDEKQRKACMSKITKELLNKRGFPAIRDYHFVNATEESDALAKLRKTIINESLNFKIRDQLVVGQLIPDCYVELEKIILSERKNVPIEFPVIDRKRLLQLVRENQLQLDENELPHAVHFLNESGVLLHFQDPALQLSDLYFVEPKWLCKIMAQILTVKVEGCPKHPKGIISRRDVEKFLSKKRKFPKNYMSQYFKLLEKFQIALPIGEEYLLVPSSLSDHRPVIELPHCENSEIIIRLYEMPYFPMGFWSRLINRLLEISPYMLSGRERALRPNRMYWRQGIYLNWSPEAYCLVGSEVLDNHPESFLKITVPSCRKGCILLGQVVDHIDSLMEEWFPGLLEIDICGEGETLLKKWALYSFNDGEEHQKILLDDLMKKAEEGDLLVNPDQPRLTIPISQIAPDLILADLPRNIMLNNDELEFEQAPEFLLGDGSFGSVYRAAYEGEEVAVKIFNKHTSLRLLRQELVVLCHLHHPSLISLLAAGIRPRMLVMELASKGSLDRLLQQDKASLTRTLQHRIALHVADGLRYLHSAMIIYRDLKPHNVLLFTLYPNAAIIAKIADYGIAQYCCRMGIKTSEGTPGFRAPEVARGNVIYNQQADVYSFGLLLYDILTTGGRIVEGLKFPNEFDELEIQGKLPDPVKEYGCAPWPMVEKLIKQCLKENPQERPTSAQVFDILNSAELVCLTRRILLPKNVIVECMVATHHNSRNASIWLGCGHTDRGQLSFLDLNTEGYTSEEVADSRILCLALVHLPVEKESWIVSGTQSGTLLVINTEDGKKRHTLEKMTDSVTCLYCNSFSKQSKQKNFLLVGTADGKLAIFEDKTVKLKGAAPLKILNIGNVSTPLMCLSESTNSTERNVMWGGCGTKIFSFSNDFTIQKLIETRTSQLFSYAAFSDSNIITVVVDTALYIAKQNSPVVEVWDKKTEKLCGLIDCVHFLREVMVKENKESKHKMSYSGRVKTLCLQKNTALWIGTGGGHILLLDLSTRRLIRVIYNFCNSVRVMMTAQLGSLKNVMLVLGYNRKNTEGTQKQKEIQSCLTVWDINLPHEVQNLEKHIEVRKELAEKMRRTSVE
Summary of the method: as §1

T1 sequence (Q5S007 whole entry G2019S): as the sequence (Q5S007 whole entry) above, with G2019S counted along it

SMILES	DC50 [1] [nM]	Dmax [1] [%]	Dmax [2] [%]	DC50 [2] [nM]
CC(C)Oc1ccc2[nH]nc(-c3cc(N4CCN(CC[C@@H]5CCN(CC6CCN(c7ccc8c(c7)C(=O)N(C7CCC(=O)NC7=O)C8=O)CC6)C5)CC4)ncn3)c2c1 (stereo partly drawn) [compound 43, 2-(2,6-dioxopiperidin-3-yl)-5-(4-(((S)-3-(2-(4-(6-(5-isopropoxy-1H-indazol-3-yl)pyrimidin-4-yl)piperazin-1-yl)ethyl)pyrrolidin-1-yl)methyl)piperidin-1-yl)isoindoline-1,3-dione]	10 to 50	50 to 70	≥ 70	10 to 50
CC(C)Oc1ccc2[nH]nc(-c3cc(N4CCN(CCN5CC(C6CCN(c7ccc8c(c7)C(=O)N(C7CCC(=O)NC7=O)C8=O)CC6)C5)CC4)ncn3)c2c1 (centres unmarked) [compound 44, 2-(2,6-dioxopiperidin-3-yl)-5-(4-(1-(2-(4-(6-(5-isopropoxy-1H-indazol-3-yl)pyrimidin-4-yl)piperazin-1-yl)ethyl)azetidin-3-yl)piperidin-1-yl)isoindoline-1,3-dione]	10 to 50	50 to 70	50 to 70	10 to 50
CC(C)Oc1ccc2[nH]nc(-c3cc(N4CCN(CCN5CC(CN6CCN(c7ccc8c(c7)C(=O)N(C7CCC(=O)NC7=O)C8=O)CC6)C5)CC4)ncn3)c2c1 (centres unmarked) [compound 45, 2-(2,6-dioxopiperidin-3-yl)-5-(4-((1-(2-(4-(6-(5-isopropoxy-1H-indazol-3-yl)pyrimidin-4-yl)piperazin-1-yl)ethyl)azetidin-3-yl)methyl)piperazin-1-yl)isoindoline-1,3-dione]	≥ 100	< 50	< 50	10 to 50
CC(C)Oc1ccc2[nH]nc(-c3cc(N4CCO[C@@H](CN5CCN(CC6CCN(c7ccc8c(c7)C(=O)N(C7CCC(=O)NC7=O)C8=O)CC6)CC5)C4)ncn3)c2c1 (stereo partly drawn) [compound 47, 2-(2,6-dioxopiperidin-3-yl)-5-(4-((4-(((S)-4-(6-(5-isopropoxy-1H-indazol-3-yl)pyrimidin-4-yl)morpholin-2-yl)methyl)piperazin-1-yl)methyl)piperidin-1-yl)isoindoline-1,3-dione]	10 to 50	50 to 70	50 to 70	< 10
CC(C)Oc1ccc2[nH]nc(-c3cc(N4CCN(CCN5CCC(CC6CCN(c7ccc8c(c7)C(=O)N(C7CCC(=O)NC7=O)C8=O)CC6)CC5)CC4)ncn3)c2c1 (centres unmarked) [compound 51, 2-(2,6-dioxopiperidin-3-yl)-5-(4-((1-(2-(4-(6-(5-isopropoxy-1H-indazol-3-yl)pyrimidin-4-yl)piperazin-1-yl)ethyl)piperidin-4-yl)methyl)piperidin-1-yl)isoindoline-1,3-dione]	10 to 50	50 to 70	50 to 70	10 to 50

The remaining lines, values ahead:

DC50 [1] [nM]	Dmax [1] [%]	Dmax [2] [%]	DC50 [2] [nM]	SMILES
10 to 50	50 to 70	≥ 70	10 to 50	CC(C)Oc1ccc2[nH]nc(-c3cc(N4CCN(CC(F)(F)C5CCN(CC6CCN(c7ccc8c(c7)C(=O)N(C7CCC(=O)NC7=O)C8=O)CC6)CC5)CC4)ncn3)c2c1 (centres unmarked) [compound 40, 5-(4-((4-(1,1-difluoro-2-(4-(6-(5-isopropoxy-1H-indazol-3-yl)pyrimidin-4-yl)piperazin-1-yl)ethyl)piperidin-1-yl)methyl)piperidin-1-yl)-2-(2,6-dioxopiperidin-3-yl)isoindoline-1,3-dione]
10 to 50	50 to 70	50 to 70	10 to 50	CC(C)Oc1ccc2[nH]nc(-c3cc(N4CCN(CCC5CCN(CC6CCN(c7ccc8c(c7)C(=O)N(C7CCC(=O)NC7=O)C8=O)CC6)CC5)CC4)ncn3)c2c1 (centres unmarked) [compound 41, 2-(2,6-dioxopiperidin-3-yl)-5-(4-((4-(2-(4-(6-(5-isopropoxy-1H-indazol-3-yl)pyrimidin-4-yl)piperazin-1-yl)ethyl)piperidin-1-yl)methyl)piperidin-1-yl)isoindoline-1,3-dione]
10 to 50	50 to 70	50 to 70	10 to 50	CC(C)Oc1ccc2[nH]nc(-c3cc(N4CCN(CC[C@H]5CCN(CC6CCN(c7ccc8c(c7)C(=O)N(C7CCC(=O)NC7=O)C8=O)CC6)C5)CC4)ncn3)c2c1 (stereo partly drawn) [compound 42, 2-(2,6-dioxopiperidin-3-yl)-5-(4-(((R)-3-(2-(4-(6-(5-isopropoxy-1H-indazol-3-yl)pyrimidin-4-yl)piperazin-1-yl)ethyl)pyrrolidin-1-yl)methyl)piperidin-1-yl)isoindoline-1,3-dione]
< 10	50 to 70	50 to 70	< 10	CC(C)Oc1ccc2[nH]nc(-c3cc(N4CCO[C@H](CN5CCN(CC6CCN(c7ccc8c(c7)C(=O)N(C7CCC(=O)NC7=O)C8=O)CC6)CC5)C4)ncn3)c2c1 (stereo partly drawn) [compound 48, 2-(2,6-dioxopiperidin-3-yl)-5-(4-((4-(((R)-4-(6-(5-isopropoxy-1H-indazol-3-yl)pyrimidin-4-yl)morpholin-2-yl)methyl)piperazin-1-yl)methyl)piperidin-1-yl)isoindoline-1,3-dione]
< 10	50 to 70	≥ 70	< 10	CC(C)Oc1ccc2[nH]nc(-c3cc(N4CCO[C@@H](CCN5CCN(CC6CCN(c7ccc8c(c7)C(=O)N(C7CCC(=O)NC7=O)C8=O)CC6)CC5)C4)ncn3)c2c1 (stereo partly drawn) [compound 49, 2-(2,6-dioxopiperidin-3-yl)-5-(4-((4-(2-((S)-4-(6-(5-isopropoxy-1H-indazol-3-yl)pyrimidin-4-yl)morpholin-2-yl)ethyl)piperazin-1-yl)methyl)piperidin-1-yl)isoindoline-1,3-dione]
< 10	≥ 70	≥ 70	< 10	CC(C)Oc1ccc2[nH]nc(-c3cc(N4CCO[C@H](CCN5CCN(CC6CCN(c7ccc8c(c7)C(=O)N(C7CCC(=O)NC7=O)C8=O)CC6)CC5)C4)ncn3)c2c1 (stereo partly drawn) [compound 50, 2-(2,6-dioxopiperidin-3-yl)-5-(4-((4-(2-((R)-4-(6-(5-isopropoxy-1H-indazol-3-yl)pyrimidin-4-yl)morpholin-2-yl)ethyl)piperazin-1-yl)methyl)piperidin-1-yl)isoindoline-1,3-dione]
